Experimental data: BigSolDB 2.1

COc1cc(CO)ccc1O
solubility (mole fraction)
Conditions	in acetonitrile	in ethanol	in ethyl acetate	in isopentanol	in isopropanol	in n-butanol	in n-butyl acetate	in n-pentanol
293.15 K	0.0172	0.0442	0.0176	0.0225	0.0284	0.0234	0.0098	0.0214
303.15 K	0.0262	0.0627	0.0296	0.0302	0.0418	0.0393	0.0177	0.0338
313.15 K	0.0415	0.0936	0.0393	0.0447	0.0578	0.0538	0.027	0.049
323.15 K	0.0713	0.142	0.0682	0.0652	0.0957	0.0902	0.0428	0.0728
333.15 K	0.127	0.205	0.1	0.0912	0.149	0.134	0.0653	0.102
343.15 K	0.22	0.317	0.163	0.14	0.237	0.182	0.107	0.155
